Residues, ends and D or L forms follow the SMILES beside them. *: point of attachment. FITC = O=C1OC2(c3ccc(O)cc3Oc3cc(O)ccc32)c2ccc(NC(=S)*)cc21
Experiment: Lymph node draining study (IVIS)
Type: in vivo, C57BL/6 mice
Details: 31 nmol s.c. at tail base, after 1 day
Description: sHDL-[…](FITC)L was prepared as described above. Female C57BL/6 mice of age 6-8 weeks were purchased from Harlan Laboratories. C57BL/6 mice were subcutaneously injected with free […](FITC)L or sHDL-[…](FITC)L. 24 hours after injection, mice were euthanized by carbon dioxide inhalation and axillary lymph nodes and inguinal lymph nodes were harvested and imaged with IVIS optical imaging system (Caliper Lifesciences).
For lymph node draining studies, C57BL/6 mice were injected with free CSSSIINFBK(FITC)L, sHDL-CSSSIINFBK(FITC)L, free Cho-CpG(Cy5), or sHDL-Cho-CpG(Cy5). After 24 h, inguinal lymph nodes were harvested, and FITC or Cy5 fluorescence signal was measured with IVIS optical imaging system (Caliper Life Sciences).

Structure (SMILES): CC[C@H](C)[C@H](NC(=O)[C@H](CO)NC(=O)[C@H](CO)NC(=O)[C@H](CO)NC(=O)[C@@H](N)CS)C(=O)N[C@H](C(=O)N[C@@H](CC(N)=O)C(=O)N[C@@H](Cc1ccccc1)C(=O)N[C@@H](CCC(=O)O)C(=O)N[C@@H](CCCCNC(=S)Nc1ccc2c(c1)C(=O)OC21c2ccc(O)cc2Oc2cc(O)ccc21)C(=O)N[C@@H](CC(C)C)C(=O)O)[C@@H](C)CC [free CSS-SIINFEK(FITC)L] (H-CSSSIINFEK(FITC)L-OH)
- FITC signal in inguinal dLNs: minimal FITC signal in inguinal dLNs

Reference: US12324843B2, “Compositions and methods for delivery of biomacromolecule agents” (The Regents of the University of Michigan, priority 2015, dated 2025)
